US20220202957A1, “LONG-LASTING ANALGESIA VIA TARGETED IN VIVO EPIGENETIC REPRESSION” (The Regents of the University of California, priority 2019, published 2022)

Key:
[1] = tested on: NaV1.7; experiment: In vivo Nav1.7 repression in mice DRG (L4-L6) by qPCR after intrathecal AAV9; design: species or system mouse; conditions: gabapentin benchmarking experiment; 24 h after carrageenan; vs AAV9-mCherry
Experimental: (§1) Intrathecal AAV Injections. Anesthesia was induced with 2.5% isoflurane delivered in equal parts O2 and room air in a closed chamber until a loss of the righting reflex was observed. The lower back of mice was shaven and swabbed with 70% ethanol. Mice were then intrathecally (i.t.) injected using a Hamilton syringe and 30G needle as previously described 104 between vertebrae L4 and L5 with 5 μL of AAV for a total of 1E+12 vg/mouse. A tail flick was considered indicative of appropriate needle placement. Following injection, all mice resumed motor activity consistent with that observed prior to i.t. injection.
Tissue collection. […]
Gene Expression Analysis and qPCR. […] Relative mRNA expression was normalized to GAPDH levels and fold change was calculated using the comparative CT (AACT) method and normalized to GAPDH. Mean fold change and SD were calculated using Microsoft Excel.
Having established in vitro Nav1.7 repression, testing the effectiveness of the best ZFP-KRAB and KRAB-dCas9 constructs from the in vitro screens (Zinc-Finger-4-KRAB and KRAB-dCas9-dual-gRNA) in a carrageenan-induced model of inflammatory pain was performed. […] After 21 days, thermal pain sensitivity was measured to establish a baseline response threshold. […]

[2] = tested on: carrageenan-induced model of inflammatory pain; experiment: Carrageenan-induced inflammatory pain model, thermal paw withdrawal latency (Hargreaves test); assay type: in vivo, mouse; conditions: gabapentin 100 mg/kg i.p.
Experimental: Animals Experiments. All animal procedures were performed in accordance with protocols approved by the Institutional Animal Care and Use Committee (IACUC) of the University of California, San Diego. All mice were acquired from Jackson Laboratory. Two-month-old adult male C57BL/6 mice (25-30 g) were housed with food and water provided ad libitum, under a 12 h light/dark cycle with up to 5 mice per cage. All behavioral tests were performed during the light cycle period.
Intrathecal AAV Injections. Anesthesia was induced with 2.5% isoflurane delivered in equal parts O2 and room air in a closed chamber until a loss of the righting reflex was observed. The lower back of mice was shaven and swabbed with 70% ethanol. Mice were then intrathecally (i.t.) injected using a Hamilton syringe and 30G needle as previously described 104 between vertebrae L4 and L5 with 5 μL of AAV for a total of 1E+12 vg/mouse. A tail flick was considered indicative of appropriate needle placement. […]
Pain Models. […] Paw thickness was measured with a caliper before and 4 h after carrageenan/saline injections as an index of edema/inflammation. […]
Thermal Withdrawal Latency (Hargreaves Test): To determine the acute nociceptive thermal threshold, the Hargreaves' test was conducted using a plantar test device (Ugo Basile, Italy) 108. […] Paw withdrawal latencies were measured with a cutoff time of 30 seconds. […]

[3] = tested on: paclitaxel-induced neuropathy; experiment: Paclitaxel-induced neuropathic pain model, tactile allodynia (von Frey filaments); assay type: in vivo, mouse; conditions: 21 days after i.t. injection, 24 h after last paclitaxel (4 x 8 mg/kg i.p.); gabapentin 100 mg/kg i.p.
Experimental: as §1
Paclitaxel-induced neuropathy: Paclitaxel (Tocris Biosciences, 1097) was dissolved in a mixture of 1:1:18 [1 volume ethanol/1 volume Cremophor EL (Millipore, 238470)/18 volumes of sterilized 0.9% (W/V) NaCl solution]. […]
Tactile allodynia: For the BzATP pain model, tactile thresholds (allodynia) were assessed 30 minutes, 1, 2, 3, 6, 24 hours after the BzATP injection. For the Paclitaxel model, tactile thresholds (allodynia) were assessed 24 hours and 29 days after the last Paclitaxel injection. […] The 50% probability of withdrawal threshold was assessed using von Frey filaments (Seemes Weinstein von Frey anesthesiometer; Stoelting Co., Wood Dale, Ill., USA) ranging from 2.44 to 4.31 (0.04-2.00 g) in an up-down method, as previously described 107. […]

[4] = tested on: Nav1.7 transcript; experiment: In vitro Nav1.7 repression by qPCR in transfected Neuro2a cells; assay type: cell-based, mouse; conditions: qPCR relative to GAPDH, KRAB-dCas9 constructs compared to the non-targeting gRNA control
Experimental: Mammalian Cell Culture. Neuro2a cells were grown in EMEM supplemented with 10% fetal bovine serum (FBS) and 1% Antibiotic-Antimycotic (Thermo Fisher Scientific) in an incubator at 37° C. and 5% CO2 atmosphere.
Lipid-Mediated Cell Transfections. One day prior to transfection, Neuro2a cells were seeded in a 24-well plate at a cell density of 1 or 2E+5 cells per well. […] of each plasmid was added to 25 μL of Opti-MEM medium, followed by addition of 25 μL of Opti-MEM containing 2 μL of Lipofectamine 2000. The mixture was incubated at room temperature for 15 min. The entire solution was then added to the cells in a 24-well plate and mixed by gently swirling the plate. Media was changed after 24 h, and the plate was incubated at 37° C. for 72 h in a 5% CO2 incubator. Cells were harvested, spun down, and frozen at […].
Gene Expression Analysis and qPCR. RNA from Neuro2a cells was extracted using Rneasy Kit (QIAGEN; 74104) and from DRG using Rneasy Micro Kit (QIAGEN; 74004). cDNA was synthesized from RNA using Protoscript II Reverse Transcriptase Kit (NEB; E6560L). […] Relative mRNA expression was normalized to GAPDH levels and fold change was calculated using the comparative CT (AACT) method and normalized to GAPDH. Mean fold change and SD were calculated using Microsoft Excel. […]

Compound | repression of Nav1.7 in DRG (L4-L6) by qPCR, significance [1] | PWL of carrageenan-injected paws at each time point vs AAV9-mCherry control (two-way ANOVA) ([2]; 30 min, 1, 2, 4, 24 h after carrageenan, AAV9 1E+12 vg/mouse i.t.) | PWL (AUC of thermal hyperalgesia) in carrageenan-injected paws vs AAV9-mCherry control ([2]; gabapentin benchmarking experiment, day 21) | 50% tactile withdrawal threshold / tactile allodynia (von Frey) [3] | repression of the Nav1.7 transcript [4] [%]
NCC1(CC(=O)O)CCCCC1 [gabapentin] | significant repression of Nav1.7 | at the 30 minute, 1 hour, and four hour time points, but not the 24 hour time point | significant increase in PWL | increased withdrawal thresholds | 
gRNA-2: guide RNA spacer GCAGGTGCACTCACCGGGT (SEQ ID NO: 130), used with KRAB-dCas9 (listed as DNA, chemistry not given here) |  |  |  |  | 56
